Some test systems named below: HCT-15 colon; SK-MEL-28 melanoma; SW-620 colon; ACHN renal; LOX IMVI melanoma; NCI/ADR-RES ovarian; OVCAR-5 ovarian; BT-549 breast; U251 CNS; SK-MEL-5 melanoma; TK-10 renal; SR leukemia; SK-OV-3 ovarian.
Common to all, as to assay: DTP human tumour cell line panel, 48 h

We go through 10 molecules from PubChem BioAssay (NCI).

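Briefly, cells in 96-well plates were exposed to five compound concentrations for 48 h, and endpoints were estimated by linear interpolation. TGI: concentration producing complete growth inhibition.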 Where only a bound is given, the exact number is not on record here.

For orientation: TGI means the concentration at which net growth stops. Regarding `Cc1oc2nc(N(C)C)n3c(C)nnc3c2c1C`, the TGI in the test on HCT-15 colon, in the test with SK-MEL-28 melanoma, in the test on SW-620 colon, in the test with ACHN renal, in the test on LOX IMVI melanoma and in the test with NCI/ADR-RES ovarian was greater than 100 µM in each case. The TGI with OVCAR-5 ovarian, in the test on BT-549 breast, in the test on U251 CNS, in the test on SK-MEL-5 melanoma, in the test on TK-10 renal and in the test on SR leukemia was greater than 100 µM each time. Moreover, the TGI in the test on SK-OV-3 ovarian was greater than 100 µM.

Consider `c1ncc(C23C4C5C6C4C2C6C53)[nH]1` (stereo not given), for which the concentration for total growth inhibition (TGI) in the test with HCT-15 colon, with SK-MEL-28 melanoma, in the test on SW-620 colon, in the test on ACHN renal, with LOX IMVI melanoma and in the test on NCI/ADR-RES ovarian was greater than 100 µM throughout. Further, the TGI in the test on OVCAR-5 ovarian, with BT-549 breast, in the test on U251 CNS, with SK-MEL-5 melanoma, with TK-10 renal and with SR leukemia was greater than 100 µM each time. This molecule had a TGI in the test with SK-OV-3 ovarian greater than 100 µM.

Consider `Cc1c(O)c(OC2OC(CO)C(O)C(O)C2O)cc2c1CC[C@@H]1C2(C)C(=O)C[C@]2(C)[C@@H]([C@@](C)(O)C(O)CCC(C)(C)O)[C@H](O)C[C@@]12C` (stereo not given in full), for which the TGI in the test on HCT-15 colon, in the test on SK-MEL-28 melanoma, in the test with SW-620 colon, with ACHN renal, with LOX IMVI melanoma and in the test on NCI/ADR-RES ovarian was greater than 100 µM in each case. In addition, the total growth inhibition concentration (TGI) in the test on OVCAR-5 ovarian, in the test on BT-549 breast, with U251 CNS, in the test on SK-MEL-5 melanoma, with TK-10 renal and in the test with SR leukemia was greater than 100 µM throughout. The molecule also gave a concentration for total growth inhibition (TGI) in the test with SK-OV-3 ovarian greater than 100 µM.

In the case of `NC(N)=NCCCS(=O)(=O)Nc1ccc(Nc2c3ccccc3nc3cc([N+](=O)[O-])ccc23)cc1`, the TGI is greater than 100 µM in the test with HCT-15 colon; 40.7 µM in the test on SK-MEL-28 melanoma; 58 µM with SW-620 colon; 63 µM with ACHN renal; greater than 75.7 µM with LOX IMVI melanoma; 58.8 µM with NCI/ADR-RES ovarian. Moreover, the TGI with OVCAR-5 ovarian was greater than 74.1 µM; in the test on BT-549 breast it was 94.4 µM; in the test with U251 CNS, 29.5 µM; with SK-MEL-5 melanoma, 45.3 µM; in the test on TK-10 renal it was greater than 84.5 µM; in the test on SR leukemia, greater than 100 µM. In the test with SK-OV-3 ovarian, this molecule registered a concentration for total growth inhibition (TGI) of 55.5 µM.

As for `CCCCC[C@H]1CC=CC(=O)O1`, the TGI in the test with HCT-15 colon was 20.9 µM; with SK-MEL-28 melanoma, 20.5 µM; in the test with SW-620 colon it was 18.7 µM; with ACHN renal, 43.6 µM; with LOX IMVI melanoma, 18.1 µM; in the test on NCI/ADR-RES ovarian, 27.1 µM. The TGI in the test on OVCAR-5 ovarian turned out to be 70 µM; in the test with BT-549 breast, 20.3 µM; with U251 CNS, 20.8 µM; with SK-MEL-5 melanoma, 21.3 µM; with TK-10 renal, 40.4 µM; in the test with SR leukemia it was 15.4 µM. The same molecule came in with a total growth inhibition concentration (TGI) in the test with SK-OV-3 ovarian of 39.7 µM.

Turning to `O=C(CCl)Nc1ccc(-c2nc3ccccc3s2)cc1`, the concentration for total growth inhibition (TGI) was 6.65 µM in the test on HCT-15 colon; 9.66 µM with SK-MEL-28 melanoma; 5.07 µM in the test on SW-620 colon; 13.8 µM in the test with ACHN renal; 2.31 µM in the test with LOX IMVI melanoma; greater than 56.2 µM with NCI/ADR-RES ovarian. The TGI in the test on OVCAR-5 ovarian turned out to be 17.1 µM; with BT-549 breast, 2.95 µM; in the test on U251 CNS, 3.15 µM; in the test on SK-MEL-5 melanoma, 3.17 µM; with TK-10 renal it was 22.6 µM; in the test with SR leukemia it was 5.49 µM. Further, the concentration for total growth inhibition (TGI) with SK-OV-3 ovarian stood at 17.5 µM.

Consider `Cc1[nH]c2ncn(N)c(=N)c2c1Cc1ccccc1`, for which the concentration for total growth inhibition (TGI) in the test with HCT-15 colon, in the test on SK-MEL-28 melanoma, in the test on SW-620 colon, with ACHN renal, with LOX IMVI melanoma and in the test with NCI/ADR-RES ovarian was greater than 100 µM in each case. The TGI in the test on OVCAR-5 ovarian, with BT-549 breast, with U251 CNS, with SK-MEL-5 melanoma, in the test with TK-10 renal and in the test with SR leukemia was greater than 100 µM each time. The same molecule showed a TGI in the test with SK-OV-3 ovarian greater than 100 µM.

On to `CC(=O)NC1C(OCc2ccccc2)OC(CO)C(O)C1OC(C)C(=O)NC(C(=O)NC(CCC(=O)Nc1ccc2c(c1)CN1C(=O)c3ccccc3C1=N2)C(N)=O)C(C)C` (stereo not given), for which the TGI with HCT-15 colon, with SK-MEL-28 melanoma, in the test on SW-620 colon, in the test on ACHN renal, in the test with LOX IMVI melanoma and with NCI/ADR-RES ovarian was greater than 100 µM throughout. Moreover, the TGI in the test on OVCAR-5 ovarian, in the test on BT-549 breast, in the test with U251 CNS, with SK-MEL-5 melanoma, with TK-10 renal and with SR leukemia was greater than 100 µM each time. The same molecule registered a total growth inhibition concentration (TGI) in the test with SK-OV-3 ovarian greater than 100 µM.

Turning to `COc1ccc2[nH]c3c(c2c1)CCc1ccccc1-3`, the total growth inhibition concentration (TGI) in the test with HCT-15 colon, with SK-MEL-28 melanoma, with SW-620 colon, in the test with ACHN renal, with LOX IMVI melanoma and in the test with NCI/ADR-RES ovarian was greater than 100 µM throughout. The concentration for total growth inhibition (TGI) in the test on OVCAR-5 ovarian, in the test on BT-549 breast, with U251 CNS, in the test on SK-MEL-5 melanoma, with TK-10 renal and in the test with SR leukemia was greater than 100 µM in each case. The TGI in the test with SK-OV-3 ovarian is greater than 100 µM.

Regarding `CC1(c2nc3ccccc3[nH]2)CCC(CO)C(C)(C)O1` (stereo not given), the TGI in the test with HCT-15 colon, in the test on SK-MEL-28 melanoma, in the test on SW-620 colon, in the test with ACHN renal, in the test on LOX IMVI melanoma and with NCI/ADR-RES ovarian was greater than 100 µM each time. For the same molecule, the TGI in the test on OVCAR-5 ovarian was greater than 100 µM; with BT-549 breast it was greater than 100 µM; in the test with U251 CNS, greater than 100 µM; in the test with SK-MEL-5 melanoma it was greater than 100 µM; in the test on TK-10 renal, greater than 100 µM; with SR leukemia, 33.7 µM. In the test with SK-OV-3 ovarian, the TGI is greater than 100 µM.
